# pIC50: −log10 of the molar value.
# Test system: 227483-062-R1-J1-PDC complex spheroids with HUVEC/MSC, viability
# Assay: Anticancer human tumor 227483-062-R1-J1-PDC patient-derived pancreatic carcinoma cell line growth inhibition [CLK]
# Details: for pIC50: curve of first compound; for viability, T/C: stronger effect = lower value
# In short: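 Patient-derived tumor cells grown as complex spheroids with HUVEC endothelial cells and mesenchymal stem cells, treated with drug combinations. Concentrations descend in half-log steps from near clinical Cmax, or from 10 microM if Cmax unknown.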
# [1] = second compound 0.0316 µM, first compound 0.0316 µM
# [2] = second compound 0.0316 µM, first compound 0.1 µM
# [3] = second compound 0.1 µM, first compound 0.0316 µM
# [4] = second compound 0.1 µM, first compound 0.1 µM
# [5] = second compound 0.316 µM, first compound 0.0316 µM
# [6] = second compound 0.316 µM, first compound 0.1 µM
# [7] = second compound 1 µM, first compound 0.0316 µM
# [8] = second compound 1 µM, first compound 0.1 µM
# [9] = second compound 3.16 µM, first compound 0.0316 µM
# [10] = second compound 3.16 µM, first compound 0.1 µM
# [11] = second compound 10 µM, first compound 0.0316 µM
# [12] = second compound 10 µM, first compound 0.1 µM
# [13] = second compound 0.0316 µM, first compound 0.316 µM
# [14] = second compound 0.0316 µM, first compound 1 µM
# [15] = second compound 0.0316 µM, first compound 3.16 µM
# [16] = second compound 0.0316 µM, first compound 10 µM
# [17] = second compound 0.1 µM, first compound 0.316 µM
# [18] = second compound 0.1 µM, first compound 1 µM
# [19] = second compound 0.1 µM, first compound 3.16 µM
# [20] = second compound 0.1 µM, first compound 10 µM
# [21] = second compound 0.316 µM, first compound 0.316 µM
# [22] = second compound 0.316 µM, first compound 1 µM
# [23] = second compound 0.316 µM, first compound 3.16 µM
# [24] = second compound 0.316 µM, first compound 10 µM
# [25] = second compound 1 µM, first compound 0.316 µM
# [26] = second compound 1 µM, first compound 1 µM
# [27] = second compound 1 µM, first compound 3.16 µM
# [28] = second compound 1 µM, first compound 10 µM
# [29] = second compound 3.16 µM, first compound 0.316 µM
# [30] = second compound 3.16 µM, first compound 1 µM
# [31] = second compound 3.16 µM, first compound 3.16 µM
# [32] = second compound 3.16 µM, first compound 10 µM
# [33] = second compound 10 µM, first compound 0.316 µM
# [34] = second compound 10 µM, first compound 1 µM
# [35] = second compound 10 µM, first compound 3.16 µM
# [36] = second compound 10 µM, first compound 10 µM
# 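Note: spheroids exposed to compounds for seven days before readout.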
# 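Throughout, for viability, T/C: percent of DMSO vehicle control luminescence as 100% viability.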
smiles,measurement,setting,value
Cn1ncnc1[C@H]1c2n[nH]c(=O)c3cc(F)cc(c23)N[C@@H]1c1ccc(F)cc1 + CNC(=O)c1ccc(Nc2nc(OC3CCCC3)c3c(-c4ccc5nc(C)oc5c4)c[nH]c3n2)c(OC)c1,pIC50,second compound 0.0316 µM,< 7.00
same,pIC50,second compound 0.1 µM,< 7.00
same,pIC50,second compound 0.316 µM,< 7.00
same,pIC50,second compound 1 µM,< 7.00
same,pIC50,second compound 3.16 µM,> 9.50
same,pIC50,second compound 10 µM,> 9.50
same,"viability, T/C","second compound 0.0316 µM, first compound 0.000316 µM",87.5%
same,"viability, T/C","second compound 0.0316 µM, first compound 0.001 µM",111%
same,"viability, T/C","second compound 0.0316 µM, first compound 0.00316 µM",118%
same,"viability, T/C","second compound 0.0316 µM, first compound 0.01 µM",100%
same,"viability, T/C",[1],89.1%
same,"viability, T/C",[2],97.1%
same,"viability, T/C","second compound 0.1 µM, first compound 0.000316 µM",111%
same,"viability, T/C","second compound 0.1 µM, first compound 0.001 µM",120%
same,"viability, T/C","second compound 0.1 µM, first compound 0.00316 µM",106%
same,"viability, T/C","second compound 0.1 µM, first compound 0.01 µM",97.4%
same,"viability, T/C",[3],97%
same,"viability, T/C",[4],109%
same,"viability, T/C","second compound 0.316 µM, first compound 0.000316 µM",105%
same,"viability, T/C","second compound 0.316 µM, first compound 0.001 µM",84.2%
same,"viability, T/C","second compound 0.316 µM, first compound 0.00316 µM",78.5%
same,"viability, T/C","second compound 0.316 µM, first compound 0.01 µM",94.4%
same,"viability, T/C",[5],94.4%
same,"viability, T/C",[6],70.4%
same,"viability, T/C","second compound 1 µM, first compound 0.000316 µM",69%
same,"viability, T/C","second compound 1 µM, first compound 0.001 µM",59.7%
same,"viability, T/C","second compound 1 µM, first compound 0.00316 µM",59.8%
same,"viability, T/C","second compound 1 µM, first compound 0.01 µM",67.4%
same,"viability, T/C",[7],71.9%
same,"viability, T/C",[8],58%
same,"viability, T/C","second compound 3.16 µM, first compound 0.000316 µM",40.7%
same,"viability, T/C","second compound 3.16 µM, first compound 0.001 µM",44.9%
same,"viability, T/C","second compound 3.16 µM, first compound 0.00316 µM",51.2%
same,"viability, T/C","second compound 3.16 µM, first compound 0.01 µM",48.5%
same,"viability, T/C",[9],49.4%
same,"viability, T/C",[10],41.3%
same,"viability, T/C","second compound 10 µM, first compound 0.000316 µM",40.5%
same,"viability, T/C","second compound 10 µM, first compound 0.001 µM",39.3%
same,"viability, T/C","second compound 10 µM, first compound 0.00316 µM",36.5%
same,"viability, T/C","second compound 10 µM, first compound 0.01 µM",34.2%
same,"viability, T/C",[11],41%
same,"viability, T/C",[12],29.3%
Nc1ccn(C2OC(CO)C(O)C2(F)F)c(=O)n1 (stereo unspecified) + CNC(=O)c1ccc(Nc2nc(OC3CCCC3)c3c(-c4ccc5nc(C)oc5c4)c[nH]c3n2)c(OC)c1,pIC50,second compound 0.0316 µM,7.17
same,pIC50,second compound 0.1 µM,7.11
same,pIC50,second compound 0.316 µM,7.28
same,pIC50,second compound 1 µM,> 7.50
same,pIC50,second compound 3.16 µM,> 7.50
same,pIC50,second compound 10 µM,> 7.50
same,"viability, T/C",[1],77.5%
same,"viability, T/C",[2],34.3%
same,"viability, T/C",[13],34.2%
same,"viability, T/C",[14],34.4%
same,"viability, T/C",[15],28.2%
same,"viability, T/C",[16],20%
same,"viability, T/C",[3],93.3%
same,"viability, T/C",[4],36.2%
same,"viability, T/C",[17],35.6%
same,"viability, T/C",[18],34.2%
same,"viability, T/C",[19],26.8%
same,"viability, T/C",[20],19.3%
same,"viability, T/C",[5],62.2%
same,"viability, T/C",[6],32.6%
same,"viability, T/C",[21],27.1%
same,"viability, T/C",[22],28.9%
same,"viability, T/C",[23],21.8%
same,"viability, T/C",[24],15.8%
same,"viability, T/C",[7],49.2%
same,"viability, T/C",[8],28.6%
same,"viability, T/C",[25],20.2%
same,"viability, T/C",[26],21.1%
same,"viability, T/C",[27],15.5%
same,"viability, T/C",[28],12.6%
same,"viability, T/C",[9],29%
same,"viability, T/C",[10],20.8%
same,"viability, T/C",[29],19.6%
same,"viability, T/C",[30],15.9%
same,"viability, T/C",[31],13.3%
same,"viability, T/C",[32],11%
same,"viability, T/C",[11],23.6%
same,"viability, T/C",[12],22%
same,"viability, T/C",[33],16.7%
same,"viability, T/C",[34],15.2%
same,"viability, T/C",[35],13.6%
same,"viability, T/C",[36],9.42%
O=c1[nH]cc(F)c(=O)[nH]1 + CNC(=O)c1ccc(Nc2nc(OC3CCCC3)c3c(-c4ccc5nc(C)oc5c4)c[nH]c3n2)c(OC)c1,pIC50,second compound 0.0316 µM,5.76
same,pIC50,second compound 0.1 µM,5.99
same,pIC50,second compound 0.316 µM,6.03
same,pIC50,second compound 1 µM,6.49
same,pIC50,second compound 3.16 µM,> 7.50
same,pIC50,second compound 10 µM,> 7.50
same,"viability, T/C",[1],94.6%
same,"viability, T/C",[2],88.3%
same,"viability, T/C",[13],108%
same,"viability, T/C",[14],62.9%
same,"viability, T/C",[15],41%
same,"viability, T/C",[16],31.2%
same,"viability, T/C",[3],104%
same,"viability, T/C",[4],93.8%
same,"viability, T/C",[17],73.8%
same,"viability, T/C",[18],50.1%
same,"viability, T/C",[19],38.4%
same,"viability, T/C",[20],36%
same,"viability, T/C",[5],71.4%
same,"viability, T/C",[6],91.7%
same,"viability, T/C",[21],66.5%
same,"viability, T/C",[22],47.5%
same,"viability, T/C",[23],37.1%
same,"viability, T/C",[24],24.5%
same,"viability, T/C",[7],80.6%
same,"viability, T/C",[8],56.2%
same,"viability, T/C",[25],60.5%
same,"viability, T/C",[26],32.5%
same,"viability, T/C",[27],22.4%
same,"viability, T/C",[28],18.7%
same,"viability, T/C",[9],46.7%
same,"viability, T/C",[10],46.9%
same,"viability, T/C",[29],41.2%
same,"viability, T/C",[30],26.4%
same,"viability, T/C",[31],18.1%
same,"viability, T/C",[32],13.8%
same,"viability, T/C",[11],44.8%
same,"viability, T/C",[12],39%
same,"viability, T/C",[33],33.1%
same,"viability, T/C",[34],23.5%
same,"viability, T/C",[35],18.9%
same,"viability, T/C",[36],14.6%
